Experimental data as given in ChEMBL document CHEMBL4270556, “Current progress on antioxidants incorporating the pyrazole core” (Eur J Med Chem, 2018).

Legend:
[1] = Antioxidant activity assessed as DPPH radical scavenging activity after 20 mins by UV absorbance method relative to control; format: functional
[2] = Antioxidant activity assessed as inhibition of lipid peroxidation relative to control; format: functional; conditions: dose or concentration not given here
[3] = Antioxidant activity assessed as inhibition of DPPH radical at 100 ug/ml relative to control; format: functional
[4] = Antioxidant activity assessed as DPPH radical scavenging activity at 80 ug/ml relative to control; format: functional
[5] = Antioxidant activity assessed as DPPH radical scavenging activity at 60 ug/ml relative to control; format: functional
[6] = Antioxidant activity assessed as DPPH radical scavenging activity at 20 ug/ml relative to control; format: functional
[7] = Antioxidant activity assessed as DPPH radical scavenging activity at 40 ug/ml relative to control; format: functional
[8] = Antioxidant activity assessed as DPPH radical scavenging activity at 30 to 50 ug/ml relative to control; format: functional
[9] = Antioxidant activity assessed as DPPH radical scavenging activity at 100 mM after 30 mins relative to control; format: functional
[10] = Antioxidant activity assessed as ferric ion reducing activity after 20 mins in presence of potassium ferricyanide by FRAP assay relative to control; format: functional; parameters: scale not given: the % may be the effect or the level left
[11] = Antioxidant activity assessed as nitric oxide radical scavenging activity at 100 mM after 150 mins in presence of sodium nitroprusside relative to control; format: functional
[12] = Antioxidant activity assessed as inhibition of lipid peroxidation; format: functional
[13] = Antioxidant activity assessed as hydroxyl radical scavenging activity; format: functional
[14] = Antioxidant activity assessed as inhibition of H2O2-induced lipid peroxidation; format: functional
[15] = Antioxidant activity assessed as radical scavenging activity at 30 to 50 ug/ml relative to control; format: functional
[16] = Antioxidant activity assessed as DPPH radical scavenging activity at 10^-3 M relative to control; format: functional
THP-1 = assay: Antioxidant activity in human THP1 cells assessed as inhibition of macrophage-mediated LDL oxidation after 24 hrs in presence of CuSO4 by TBARS assay; format: functional, cell-based; conditions: THP-1, 24 h
[17] = Antioxidant activity assessed as DPPH radical scavenging activity at 10 ug/ml after 20 mins by UV absorbance method relative to control; format: functional

Compound `Cc1ccc(N2N=C(c3ccccc3)CC2Cn2cnc3c(Cl)ncnc32)cc1` (centres undefined) has an Activity [1] of 20% and an inhibition [2] of 58%.
`CCOC(=O)c1c(C)nn(-c2ccc(C)cc2C)c1-c1ccc([N+](=O)[O-])cc1` gave an inhibition [3] of 22.2 to 49.9%.
Compound `CCOC(=O)C1=C(N)Oc2c(c(C)nn2C(=O)c2ccncc2)C1c1c(-c2ccc(C)cc2)[nH]c2ccccc12` (centres undefined) has an Activity [4] of 76.1%, an Activity [5] of 76.1% and an Activity [6] of 80.1%. For the same compound, the Activity [7] was 79.6%.
In the case of `CCOC(=O)c1sc(Nc2ccccc2)c(-c2nc3c(cnn3-c3ccccc3)c(=O)[nH]2)c1N`, the Activity is reported as 92%.
Compound `COc1ccc(C2C(c3ccco3)=NN(c3ccccc3)C2C#N)cc1` (centres undefined) has an Activity [8] of less than 45%.
Compound `COc1ccc(C2=NN(c3ccccc3)C(C#N)C2c2ccc(OC)cc2)cc1` (centres undefined) has an Activity [8] of less than 45%.
With `Cc1ccc(-c2nn(-c3ccccc3)cc2/C=C/C(=O)c2cccc(NC(=O)c3ccc(F)cc3)c2)cc1` the Activity [9] was 36.8 to 42.3%, the Activity [10] was 44.4 to 55.5% and the Activity [11] was 32.4 to 77.9%.
`CCOC(=O)C1=C(N)Oc2c(c(C)nn2C(=O)c2ccncc2)C1c1c(-c2ccc(C)cc2)[nH]c2ccc(Cl)cc12` (centres undefined) gave an Activity [6] of 66.6 to 76.1%.
`Clc1ncnc2c1ncn2CC1CC(c2ccccc2)=NN1c1ccccc1` (centres undefined) gave an Activity [1] of 13 to 24% and an inhibition [2] of 94%.
Work on `CCOC(=O)c1c(C)nn(-c2cccc(Cl)c2)c1-c1ccc(N(C)C)cc1` yielded an inhibition [3] of 22.2 to 49.9%.
With `O=C(/C=C/c1cn(-c2ccccc2)nc1-c1ccc(Cl)cc1)c1cccc(NC(=O)c2ccc(F)cc2)c1` the Activity [10] was 44.4 to 55.5% and the Activity [11] was 32.4 to 77.9%.
Compound `c1ccc(C2=NN(c3ccccc3)C(Cn3cnc4c(N5CCCC5)ncnc43)C2)cc1` (centres undefined) has an Activity [1] of 13 to 24% and an inhibition [2] of 73%.
Work on `Cc1ccc(-n2nc(-c3ccccc3)cc2Cn2cnc3c(N4CCCC4)ncnc32)cc1` yielded an Activity [1] of 43 to 44% and an inhibition [2] of 87%.
Compound `CCOC(=O)c1c(C)nn(-c2ccc(C)cc2C)c1-c1ccc(N(C)C)cc1` has an inhibition [3] of 22.2 to 49.9%.
`Cc1ccc(-c2cc(C(F)(F)F)nn2-c2ccc(S(N)(=O)=O)cc2)cc1` [CELECOXIB] gave an IC50 [12] of 1990 µM and an IC50 [13] of 1970 µM.
In the case of `CC1=NN(C(=O)c2ccccc2O)C(O)(C(F)(F)F)C1` (centres undefined), the IC50 [14] is reported as less than 15 µM.
For `COc1ccc(C2=NN(c3ccccc3)[C@H]3C(=O)N(c4ccccc4)C(=O)[C@@H]23)cc1OC`, the Activity [15] was less than 55%.
Work on `O=C(/C=C/c1cn(-c2ccccc2)nc1-c1ccccc1)c1cccc(NC(=O)c2ccc(F)cc2)c1` yielded an Activity [9] of 36.8 to 42.3%, an Activity [10] of 44.4 to 55.5% and an Activity [11] of 32.4 to 77.9%.
For `c1ccc(C2=NN(c3ccccc3)C(Cn3cnc4c(N5CCOCC5)ncnc43)C2)cc1` (centres undefined), the Activity [1] was 13 to 24% and the inhibition [2] was 100%.
Work on `O=C(/C=C/c1cn(-c2ccccc2)nc1-c1cccc([N+](=O)[O-])c1)c1cccc(NC(=O)c2ccc(F)cc2)c1` yielded an Activity [9] of 33.3% and an Activity [11] of 32.4 to 77.9%.
With `Oc1cc(O)c2c(c1)O[C@H](c1ccc(O)c(O)c1)[C@@H](O)C2` [CIANIDANOL] the IC50 [12] was 1440 µM and the IC50 [13] was 2930 µM.
`Cc1ccc(-n2nc(-c3ccccc3)cc2Cn2cnc3c(N4CCOCC4)ncnc32)cc1` gave an Activity [1] of 62 to 79% and an inhibition [2] of 99%.
For `NS(=O)(=O)c1ccc(-n2nc(-c3cccs3)cc2-c2cnn(-c3ccccc3)c2)cc1`, the Activity [16] was 12%.
In the case of `CC(C)(Sc1cc(C(C)(C)C)c(O)c(C(C)(C)C)c1)Sc1cc(C(C)(C)C)c(O)c(C(C)(C)C)c1` [PROBUCOL], the IC50 (THP-1) is reported as 0.6 µM.
Work on `CCOC(=O)c1c(C)nn(-c2ccccc2)c1-c1ccc(N(C)C)cc1` yielded an inhibition [3] of 22.2 to 49.9%.
With `O=C1[C@H]2C(c3ccccc3)=NN(c3ccccc3)[C@H]2C(=O)N1c1ccc(Cl)cc1` the Activity [15] was less than 40%.
In the case of `O=C1[C@H]2C(c3ccc(Cl)cc3)=NN(c3ccccc3)[C@H]2C(=O)N1c1ccccc1`, the Activity [15] is reported as less than 40%.
`O=C(c1ccc(Cl)cc1)N1N=C(Cn2c3ccccc3c3nc4cc(Cc5ccc6nc(-c7ccccc7)c(-c7ccccc7)nc6c5)ccc4nc32)CC1c1ccc(Cl)cc1` (centres undefined) showed an Activity [17] of 58.3%.
Work on `Cc1c(C)c2c(c(C)c1O)CCC(C)(C(=O)O)O2` (centres undefined) yielded an inhibition [2] of 64%.
In the case of `O=C(c1ccccc1)N1N=C(Cn2c3ccccc3c3nc4cc(Cc5ccc6nc(-c7ccccc7)c(-c7ccccc7)nc6c5)ccc4nc32)CC1c1ccc(F)cc1` (centres undefined), the Activity [17] is reported as 45.5%.
Compound `Cc1ccc(N2N=C(c3ccccc3)CC2Cn2cnc3c(N4CCCC4)ncnc32)cc1` (centres undefined) has an Activity [1] of 43 to 44% and an inhibition [2] of 49%.
Work on `O=C(/C=C/c1cn(-c2ccccc2)nc1-c1ccc(F)cc1)c1cccc(NC(=O)c2ccc(F)cc2)c1` yielded an Activity [9] of 33.3% and an Activity [11] of 32.4 to 77.9%.
For `CCOC(=O)c1c(C)nn(-c2cccc(Cl)c2)c1-c1ccc([N+](=O)[O-])cc1`, the inhibition [3] was 22.2 to 49.9%.
`CCOC(=O)c1c(C)nn(-c2cccc(Cl)c2)c1-c1ccc(Cl)cc1` gave an inhibition [3] of 22.2 to 49.9%.
With `COc1ccc(C2C(c3ccc(F)cc3)=NN(c3ccccc3)C2C#N)cc1` (centres undefined) the Activity [8] was less than 60%.
